US11884710B2, “Peptide compounds and methods of use in wound healing” (priority 2013, dated 2024)

Key:
Type in all cases: in vivo
[1] = system: P. aeruginosa (ATCC 27853); experiment: Mouse model of Pseudomonas (bacterial) keratitis; settings: 48 hours post-infection
Procedure: A circular wound was created on the mouse cornea by removing the epithelium and infected with 10^5 colony forming units (CFU) of P. aeruginosa (ATCC® 27853™ (American Type Culture Collection, Manassas, Va.)). Infected wounds were treated with saline (0.9% sodium chloride, vehicle control) or saline containing indicated concentrations of peptide every 15 minutes for 2 hours, then every 30 minutes for 3 hours on the first day. Infected wounds were treated twice on the second day and once on the third day. Mice were killed at 48 hours post-infection, and CFU/eye were quantified. The means were plotted and are representative of 5 to 9 mice per group. Mann Whitney test was performed for each group as compared to the saline control group. *P=0.014. In compound names such as BCC02-5RMP used herein, “R” represents arginine, and “MP” represents a small PEG molecule as defined elsewhere herein (such as, for example but not by way of limitation, “AEEP”).
(§1) A circular wound was created on the mouse cornea by removing the epithelium, and the wound was infected with 10^5 CFU of P. aeruginosa (ATCC® 27853™ (American Type Culture Collection, Manassas, Va.)). Infected wounds were treated with saline or saline containing indicated concentrations (2, 5, 10, and 20 mg/ml) of peptide every 30 minutes for 6 hours on the first day. Infected wounds were treated twice on the second day and once on the third day. Mice were killed at 48 hours post-infection, and the CFU/eye were quantified. The means are plotted and are representative of 5 mice per group. Mann Whitney test was performed for each group as compared to the saline control group. *P=0.015 and **P=0.097.
as §1, with “representative of 4 to 5 mice” for “representative of 5 mice”, “control group.” for “control group. *P=0.015 and **P=0.097.”
as §1, with “group. **P=0.0079 by” for “group.”, “test” for “test was performed for each group”, “group.” for “group. *P=0.015 and **P=0.097.”
A circular wound (2 mm) was created on the mouse cornea by removing the epithelium and infecting the wound with 10^5 CFU of P. aeruginosa (ATCC® 27853™ (American Type Culture Collection, Manassas, Va.)). Infected wounds were treated with saline or saline containing indicated concentrations of peptide every 15 minutes for 2 hours, then every 30 minutes for 3 hours on the first day. […] Mice were killed at 48 hours post-infection, and the colony forming units per eye (CFU/eye) were quantified. […]

[2] = system: full thickness excisional wounds; experiment: Histopathology of swine dermal wounds; parameters: Inflammation, mean histopathology score / Angiogenesis, mean histopathology score / Granulation, mean histopathology score / Epithelization, mean histopathology score: scale not given here; settings: for epidermal resurfacing and maturation vs saline control, in words: day 14 post-wounding; for Angiogenesis, mean histopathology score / Epithelization, mean histopathology score / Granulation, mean histopathology score / Inflammation, mean histopathology score: wounds harvested on day 14, 3 mg/ml
Procedure: The characteristics that were measured are required to indicate features of a well-healed wound. Inflammation should be low and re-epithelialization high.
Full thickness excisional wounds were induced on the dorsum of swine (N=3) using a 1.0 cm biopsy punch. Treatments were administered (0.20 ml) to each wound (N=6 wounds per group), and the wounds were dressed with standard occlusive dressing ([…]™, 3M Corporation, St. Paul, Minn.). Treatments were reapplied daily and dressings changed. Clinical wound healing observations and wound area (2 mm) measurements were performed on days 0, 3, 5, 7, 10, and 14 post-wounding. Wound area (2 mm) data were expressed as percentage (%) of wound healing. Animals were terminated on day 14 with wounds harvested and processed for histological evaluation. […] All peptide formulation treatment groups healed faster with greater rate of closure and re-epithelialization over time, as compared to the saline control (Group A).
The histology correlated with the clinical observations. […] There were minimal differences in the amount or character of granulation tissue, inflammation, and angiogenesis. All the wounds were well filled and vascularized.

mouse cornea = experiment: Histology (H&E) of corneal wound closure and re-epithelialization; settings: rCAP37 250 ng/ml
Procedure: FIG. 23 is a histological analysis of corneal wound closure and re-epithelialization in response to CAP37. Corneas of mice were wounded using the Algerbrush II and treated at 0 and 16 hours with rCAP37 (250 ng/ml) or vehicle (normal saline). Whole eye globes were enucleated at 0, 24, and 48 hours post wounding, and sections were stained using hematoxylin and eosin (H&E). Representative images are shown of (A) CAP37-treated wound at 24 hours, (B) vehicle-treated wound at 24 hours, (C) CAP37-treated wound at 48 hours, and (D) vehicle treated wound at 48 hours. The extent of closure and re-epithelialization of wounds was compared with (E) normal unwounded cornea.
Histology: Whole mouse eyes were collected for histology at 0, 6, 16, 24, and 48 hours post wounding and were immediately placed in Prefer fixative (Anatech LTD., Battle Creek, Mich.) for 20 minutes before being transferred to 70% ethanol. Tissues were paraffin-embedded and cut at a thickness of 5 μm, mounted on SUPERFROSTPLUS® slides (Statlab Medical Products, Lewisville, Tex.), and subsequently deparaffinized, rehydrated, and washed in deionized water. Sections were stained with hematoxylin (Leica Microsystems, Buffalo Grove, Ill.) and rinsed twice in deionized water before being washed in Blue Buffer (Leica Microsystems). […]

Molecule: GTRCQVAGWGSWRSGGRLSRFPRFVNV (derivative of peptide of Homo sapiens CAP37 protein) [Peptide 120-146WR]
- infection (CFU/eye) vs saline, in words ([1]; topical 5, 10, and 20 mg/ml): significantly reduced infection

Molecule: GTRCQVAGWGSWHSGGRLSRFPRFVNV (derivative of peptide of CAP37 protein) [Peptide 120-146WH]
- CFU/eye vs saline, in words ([1]; topical doses of 10 and 20 mg/ml): significantly reduced the CFU/eye
- epidermal resurfacing and maturation vs saline control, in words [2]: greater extent of epidermal resurfacing and maturation of the epidermis
- Angiogenesis, mean histopathology score [2]: 1.7
- Epithelization, mean histopathology score [2]: 3.7
- Granulation, mean histopathology score [2]: 4.0
- Inflammation, mean histopathology score [2]: 0.5

Molecule: LDREANLTSSVTILPLPLQNATVEAGTR (listed as Homo sapiens) [Peptide 95-122]
- epidermal resurfacing and maturation vs saline control, in words [2]: greater extent of epidermal resurfacing and maturation of the epidermis
- Angiogenesis, mean histopathology score [2]: 2.3
- Epithelization, mean histopathology score [2]: 4.0
- Granulation, mean histopathology score [2]: 4.0
- Inflammation, mean histopathology score [2]: 0.5

B1: CAP37: cationic antimicrobial protein of Mr 37 kDa; recombinant CAP37 produced in human embryonic kidney (HEK) 293 cells (protein)
chain: IVGGRKARPRQFPFLASIQNQGRHFCGGALIHARFVMTAASCFQSQNPGVSTVVLGAYDLRRRERQSRQTFSISSMSENGYDPQQNLNDLMLLQLDREANLTSSVTILPLPLQNATVEAGTRCQVAGWGSQRSGGRLSRFPRFVNVTVTPEDQCRPNNVCTGVLTRRGGICNGDGGTPLVCEGLAHGVASFSLGPCGRGPDFFTRVALFRDWIDGVLNNPGP
- re-epithelialization vs vehicle, in words (mouse cornea; 24 hours): greatly accelerated in comparison to the vehicle-treated wounds
- structural integrity of the epithelium, in words (mouse cornea; 48 hours): regained full integrity
